Key:
PI3K beta = target: T1, PI3K beta (Homo sapiens, UniProt P42338); assay: PI3K beta kinase assay (Kinase-Glo luminescence); assay type: biochemical
T1 construct: for the full-length p110-b subunit are generated and fused by overlapping PCR; p85(iSH2) fusion partner (see partner chain) (N); His tag (C); made in house; host or cells: baculovirus; Tn5 (Trichoplusia ni) or TiniPro insect cells
How it was run: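 p110β full-length/p85 iSH2 construct (BV-949), 25 nM, with 1 μM ATP and 10 μg/mL phosphatidylinositol in 10 mM Tris pH 7.5, 3 mM MgCl2, 50 mM NaCl, 0.05% CHAPS, 1 mM DTT. 60 min at room temperature; ATP remaining read by Kinase-Glo luminescence. IC50 from 8-point four-parameter logistic fit.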

mTOR = target: T2, mTOR (Homo sapiens, UniProt P42345); assay: Biochemical assay for m-TOR by TR-FRET; settings: 8 μM ATP, 400 nM GFP-4EBP1, 0.5 nM mTOR
T2 construct: purchased Invitrogen Corporation (Carlsbad/CA, USA) PV4753
How it was run: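 mTOR (0.5 nM) was incubated at rt with ATP (8 μM final) and GFP-4EBP1 (400 nM final) in 50 mM HEPES pH 7.5, 10 mM MnCl2, 50 mM NaCl, 1 mM EGTA, 1 mM DTT. EDTA stop with Tb3+-anti-p4EBP1 [pThr46] antibody (0.5 nM); TR-FRET read 15 min later.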

[1] = test system: PKB Ser473 phosphorylation in Rat1-myr-HA-p110 delta cells; assay: Reverse protein array assay, PKB Ser473 phosphorylation in Rat1-myr-p110 delta cells; assay type: cell-based; settings: read-out: p-PKB IC50
How it was run: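 Lysates were arrayed at four dilutions, and phospho-PKB Ser473 was quantified by relative fluorescence signal. They came from Rat1-myr-HA-p110 alpha, beta or delta cells exposed for 30 min at 37 °C to an 8-point compound series with 0.2% DMSO constant.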

T1 sequence (P42338 with tags, fused parts or gaps limits assumed): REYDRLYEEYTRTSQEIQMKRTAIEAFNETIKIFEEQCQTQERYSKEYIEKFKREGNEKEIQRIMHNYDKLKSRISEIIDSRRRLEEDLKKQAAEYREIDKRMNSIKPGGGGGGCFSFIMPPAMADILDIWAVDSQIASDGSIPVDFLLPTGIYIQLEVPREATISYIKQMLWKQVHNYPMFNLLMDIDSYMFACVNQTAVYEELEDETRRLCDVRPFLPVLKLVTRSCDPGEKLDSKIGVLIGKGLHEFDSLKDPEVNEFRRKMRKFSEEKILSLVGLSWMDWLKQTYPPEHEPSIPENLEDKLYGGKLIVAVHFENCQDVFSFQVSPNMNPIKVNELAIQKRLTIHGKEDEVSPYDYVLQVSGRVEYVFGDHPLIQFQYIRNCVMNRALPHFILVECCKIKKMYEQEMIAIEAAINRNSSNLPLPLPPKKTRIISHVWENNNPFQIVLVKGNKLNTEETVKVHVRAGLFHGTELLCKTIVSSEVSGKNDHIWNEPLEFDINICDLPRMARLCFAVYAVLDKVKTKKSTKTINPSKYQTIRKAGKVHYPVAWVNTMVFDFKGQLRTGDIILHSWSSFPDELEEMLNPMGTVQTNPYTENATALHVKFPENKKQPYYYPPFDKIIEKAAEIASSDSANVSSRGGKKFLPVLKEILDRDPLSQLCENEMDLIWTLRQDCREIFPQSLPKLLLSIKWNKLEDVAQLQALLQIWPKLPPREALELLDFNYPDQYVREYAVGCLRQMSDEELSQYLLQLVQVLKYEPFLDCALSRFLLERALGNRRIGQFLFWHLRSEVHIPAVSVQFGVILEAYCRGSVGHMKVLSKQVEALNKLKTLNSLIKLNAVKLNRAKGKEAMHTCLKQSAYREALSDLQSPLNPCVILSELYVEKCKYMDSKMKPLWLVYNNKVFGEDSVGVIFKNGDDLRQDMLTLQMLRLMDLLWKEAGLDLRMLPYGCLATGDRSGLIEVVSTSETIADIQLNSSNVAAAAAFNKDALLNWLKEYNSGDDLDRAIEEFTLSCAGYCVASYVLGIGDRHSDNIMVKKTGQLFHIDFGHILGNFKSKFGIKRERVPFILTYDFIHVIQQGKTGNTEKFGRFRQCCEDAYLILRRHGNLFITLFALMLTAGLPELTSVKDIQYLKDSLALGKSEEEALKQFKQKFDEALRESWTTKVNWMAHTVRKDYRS
T2 sequence (P42345 1360-2549 limits assumed): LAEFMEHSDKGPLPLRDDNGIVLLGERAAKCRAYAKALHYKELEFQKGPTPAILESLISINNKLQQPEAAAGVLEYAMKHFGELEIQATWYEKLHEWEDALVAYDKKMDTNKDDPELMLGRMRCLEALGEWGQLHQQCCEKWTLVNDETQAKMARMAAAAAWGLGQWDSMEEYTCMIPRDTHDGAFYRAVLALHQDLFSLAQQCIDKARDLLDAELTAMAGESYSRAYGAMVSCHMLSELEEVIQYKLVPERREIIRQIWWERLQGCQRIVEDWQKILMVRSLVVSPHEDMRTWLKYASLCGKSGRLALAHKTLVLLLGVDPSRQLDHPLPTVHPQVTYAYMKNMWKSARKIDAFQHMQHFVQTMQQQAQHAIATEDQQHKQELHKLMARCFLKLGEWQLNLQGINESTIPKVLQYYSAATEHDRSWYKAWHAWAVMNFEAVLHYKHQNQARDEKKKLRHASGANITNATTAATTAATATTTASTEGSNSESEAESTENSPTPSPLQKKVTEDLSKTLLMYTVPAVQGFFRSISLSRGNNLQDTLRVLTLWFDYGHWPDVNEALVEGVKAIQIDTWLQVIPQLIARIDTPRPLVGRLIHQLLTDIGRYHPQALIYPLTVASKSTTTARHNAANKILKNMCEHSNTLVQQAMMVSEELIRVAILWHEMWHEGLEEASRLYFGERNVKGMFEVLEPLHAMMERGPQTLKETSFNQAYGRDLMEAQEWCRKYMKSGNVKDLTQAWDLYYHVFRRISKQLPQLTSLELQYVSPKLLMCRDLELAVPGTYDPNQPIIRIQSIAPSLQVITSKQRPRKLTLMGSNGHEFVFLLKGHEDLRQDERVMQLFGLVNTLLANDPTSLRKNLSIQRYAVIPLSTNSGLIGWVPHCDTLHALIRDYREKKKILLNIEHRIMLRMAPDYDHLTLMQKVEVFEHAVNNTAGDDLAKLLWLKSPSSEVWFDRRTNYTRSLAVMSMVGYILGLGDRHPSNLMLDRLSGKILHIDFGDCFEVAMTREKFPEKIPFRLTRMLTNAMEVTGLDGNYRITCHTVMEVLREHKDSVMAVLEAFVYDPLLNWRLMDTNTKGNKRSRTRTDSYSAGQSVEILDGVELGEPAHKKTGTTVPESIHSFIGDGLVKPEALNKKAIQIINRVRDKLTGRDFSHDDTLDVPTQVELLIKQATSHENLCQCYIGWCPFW

Row | SMILES | IC50 (PI3K beta) | IC50 (mTOR) | IC50 [1]
1 | COc1ccc(-c2ccc3ncc4c(c3c2)n(-c2cc(C)nn2C)c(=O)n4C)cc1OC [Example 1.4, 8-(3,4-Dimethoxy-phenyl)-1-(2,5-dimethyl-2H-pyrazol-3-yl)-3-methyl-1,3-dihydro-imidazo[4,5-c]quinolin-2-one] | 378 nM | 87 nM | 131 nM
2 | COc1ccc(-c2ccc3ncc4c(c3c2)n(-c2cn(C(C)C)nc2C)c(=O)n4C)cc1OC [Example 1.5, 8-(3,4-Dimethoxy-phenyl)-1-(1-isopropyl-3-methyl-1H-pyrazol-4-yl)-3-methyl-1,3-dihydro-imidazo[4,5-c]quinolin-2-one] | 101 nM | 61 nM | 50 nM
3 | CCOc1ccc(-c2ccc3ncc4c(c3c2)n(-c2c(C)nn(C)c2C)c(=O)n4C)cn1 [Example 3.3, 8-(6-Ethoxy-pyridin-3-yl)-3-methyl-1-(1,3,5-trimethyl-1H-pyrazol-4-yl)-1,3-dihydro-imidazo[4,5-c]quinolin-2-one] | 401 nM | 651 nM | 927 nM
4 | CCOc1ccc(-c2ccc3ncc4c(c3c2)n(-c2cn(C(C)C)nc2C)c(=O)n4C)cn1 [Example 3.7, 8-(6-Ethoxy-pyridin-3-yl)-1-(1-isopropyl-3-methyl-1H-pyrazol-4-yl)-3-methyl-1,3-dihydro-imidazo[4,5-c]quinolin-2-one] | 537 nM | 23 nM | 186 nM
5 | CCOc1ccc(-c2ccc3ncc4c(c3c2)n(-c2cn(CC(=O)N(C)C)nc2C)c(=O)n4C)cn1 [Example 3.9, 2-{4-[8-(6-Ethoxy-pyridin-3-yl)-3-methyl-2-oxo-2,3-dihydro-imidazo[4,5-c]quinolin-1-yl]-3-methyl-pyrazol-1-yl}-N,N-dimethyl-acetamide] | – | 11 nM | 50 nM
6 | Cc1cc(-n2c(=O)n(C)c3cnc4ccc(-c5ccc(N(C)C)nc5)cc4c32)n(C)n1 [Example 4.6, 8-(6-Dimethylamino-pyridin-3-yl)-1-(2,5-dimethyl-2H-pyrazol-3-yl)-3-methyl-1,3-dihydro-imidazo[4,5-c]quinolin-2-one] | 336 nM | 42 nM | 205 nM
7 | Cc1nn(C)cc1-n1c(=O)n(C)c2cnc3ccc(-c4ccc(N5CCC5)nc4)cc3c21 [Example 5.1, 8-(6-Azetidin-1-yl-pyridin-3-yl)-1-(1,3-dimethyl-1H-pyrazol-4-yl)-3-methyl-1,3-dihydro-imidazo[4,5-c]quinolin-2-one] | 787 nM | 18 nM | 18 nM
8 | CNC(=O)c1ccc(-c2ccc3ncc4c(c3c2)n(-c2c(C)nn(C)c2C)c(=O)n4C)cn1 [Example 15.2, 5-[3-Methyl-2-oxo-1-(1,3,5-trimethyl-1H-pyrazo1-4-yl)-2,3-dihydro-1H-imidazo[4,5-c]quinolin-8-yl]-pyridine-2-carboxylic acid methylamide] | 988 nM | 335 nM | –
9 | Cc1nn(C)cc1-n1c(=O)n(C)c2cnc3ccc(-c4ccc(-n5cccn5)cc4)cc3c21 [Example 51.1, 1-(1,3-Dimethyl-1H-pyrazol-4-yl)-3-methyl-8-(4-pyrazol-1-yl-phenyl)-1,3-dihydro-imidazo[4,5-c]quinolin-2-one] | – | 11 nM | 29 nM
10 | CCOc1ncc(-c2ccc3ncc4c(c3c2)n(-c2cn(C)nc2C)c(=O)n4C)cc1NC(C)=O [Example 65, N-{5-[1-(1,3-Dimethyl-1H-pyrazol-4-yl)-3-methyl-2-oxo-2,3-dihydro-1H-imidazo[4,5-c]quinolin-8-yl]-2-ethoxy-pyridin-3-yl}-acetamide] | – | 58 nM | 102 nM
11 | Cc1nn(C)cc1-n1c(=O)n(C)c2cnc3ccc(-c4ccnc(OC(C)C)c4)cc3c21 [Example 92, 1-(1,3-Dimethyl-1H-pyrazol-4-yl)-8-(2-isopropoxy-pyridin-4-yl)-3-methyl-1,3-dihydro-imidazo[4,5-c]quinolin-2-one] | 246 nM | 376 nM | –
12 | Cc1nn(C)cc1-n1c(=O)n(C)c2cnc3ccc(-c4ccc(OCCCO)nc4)cc3c21 [Example 108, 1-(1,3-Dimethyl-1H-pyrazol-4-yl)-8-[6-(3-hydroxy-propoxy)-pyridin-3-yl]-3-methyl-1,3-dihydro-imidazo[4,5-c]quinolin-2-one] | – | 60 nM | 401 nM
13 | CCNc1ncc(-c2ccc3ncc4c(c3c2)n(-c2c(C)nn(C)c2C)c(=O)n4C)cc1COC [Example 206.2, 8-(6-Ethylamino-5-methoxymethyl-pyridin-3-yl)-3-methyl-1-(1,3,5-trimethyl-1H-pyrazol-4-yl)-1,3-dihydro-imidazo[4,5-c]quinolin-2-one] | 432 nM | – | 479 nM

Next, values leading:

Row | IC50 (PI3K beta) | IC50 (mTOR) | IC50 [1] | SMILES
14 | 43 nM | 10 nM | 30 nM | CCn1cc(-n2c(=O)n(C)c3cnc4ccc(-c5ccc(OC)c(OC)c5)cc4c32)c(C)n1 [Example 1.6, 8-(3,4-Dimethoxy-phenyl)-1-(1-ethyl-3-methyl-1H-pyrazol-4-yl)-3-methyl-1,3-dihydro-imidazo[4,5-c]quinolin-2-one]
15 | 86 nM | 9 nM | 36 nM | COc1ccc(-c2ccc3ncc4c(c3c2)n(-c2cn(C)nc2C)c(=O)n4C)cn1 [Example 2.5, 1-(1,3-Dimethyl-1H-pyrazol-4-yl)-8-(6-methoxy-pyridin-3-yl)-3-methyl-1,3-dihydro-imidazo[4,5-c]quinolin-2-one]
16 | 91 nM | 13 nM | 62 nM | CCn1cc(-n2c(=O)n(C)c3cnc4ccc(-c5ccc(OC)nc5)cc4c32)c(C)n1 [Example 2.7, 1-(1-Ethyl-3-methyl-1H-pyrazol-4-yl)-8-(6-methoxy-pyridin-3-yl)-3-methyl-1,3-dihydro-imidazo[4,5-c]quinolin-2-one]
17 | 213 nM | 22 nM | 38 nM | Cc1nn(C)cc1-n1c(=O)n(C)c2cnc3ccc(-c4ccc(N(C)C)nc4)cc3c21 [Example 4.5, 8-(6-Dimethylamino-pyridin-3-yl)-1-(1,3-dimethyl-1H-pyrazol-4-yl)-3-methyl-1,3-dihydro-imidazo[4,5-c]quinolin-2-one]
18 | – | 193 nM | 335 nM | CCOCc1ncc(-c2ccc3ncc4c(c3c2)n(-c2cn(C)nc2C)c(=O)n4C)cc1OC [Example 196.2, 1-(1,3-Dimethyl-1H-pyrazol-4-yl)-8-(6-ethoxymethyl-5-methoxy-pyridin-3-yl)-3-methyl-1,3-dihydro-imidazo[4,5-c]quinolin-2-one]
19 | – | 373 nM | 631 nM | CO[C@@H]1CCN(c2ccc(-c3ccc4ncc5c(c4c3)n(-c3cn(C)nc3C)c(=O)n5C)cn2)C1 [Example 213.1, 1-(1,3-Dimethyl-1H-pyrazol-4-yl)-8-[6-((R)-3-methoxy-pyrrolidin-1-yl)-pyridin-3-yl]-3-methyl-1,3-dihydro-imidazo[4,5-c]quinolin-2-one]
20 | – | 12 nM | 288 nM | Cc1nn(CC(=O)N2CCC2)cc1-n1c(=O)n(C)c2cnc3ccc(-c4cnc(N5CCCC5)nc4)cc3c21 [Example 247.2, 1-[1-(2-Azetidin-1-yl-2-oxo-ethyl)-3-methyl-1H-pyrazol-4-yl]-3-methyl-8-(2-pyrrolidin-1-yl-pyrimidin-5-yl)-1,3-dihydro-imidazo[4,5-c]quinolin-2-one]

— US20140005163A1 (NOVARTIS AG, priority 2010, published 2014)
